# Results taken from US20220125760A1, “USE OF USP7 INHIBITORS FOR THE TREATMENT OF ACUTE MYELOID LEUKEMIA (AML)” (INSERM (Institut National de la Santé et de la Recherche …, priority 2019, published 2022).
# Legend:
# [1] = test system: CHK1 protein levels in HL-60 cells; assay: CHK1 protein level by western blot in HL-60 cells; type: cell-based, Human; settings: HL-60 cells (p53 null), P22077 at 10, visible from 8 h to 24 h of treatment
# Procedure: (§1) FIG. 2: USP7 inhibition decreases CHK1 protein level. […] Actin was used as loading control. Normalization was performed using CTL siRNA condition as reference. […] B: HL-60 cells were treated with USP7 inhibitor (P22077) at 10 and harvested at the indicated times, followed by western blotting for CHK1. […] The amount of CHK1 at t=0 h was set to 1. […] C: OCI-AML3 cells were treated with USP7 inhibitor (P22077) at 10 μM and harvested at the indicated times, followed by western blotting for CHK1 protein. Graph represent the quantification of CHK1 protein levels normalized to actin loading control from 3 independent experiments. Statistical analyses were performed as in B.
# (§2) We then investigated whether USP7 could regulate CHK1 levels in leukemic cells. […] We then used P22077, an inhibitor of USP7 catalytic activity^34,35, to further monitor the impact of USP7 inhibition on CHK1 levels. […] We then asked whether p53 status could affect this response and reproduced these experiments on two AML cell lines, OCI-AML3 and HEL, which express wild-type p53 and high CHK1 protein levels (FIG. 1A and data not shown). […] Using an immunofluorescence approach, we also validated that approximately 50% of CHK1 protein signal disappears after 24 hours of USP7 inhibition (data not shown).
# [2] = test system: CHK1 protein level in OCI-AML3 cell line; assay: CHK1 protein level by western blot in OCI-AML3 cells; type: cell-based, Human; settings: OCI-AML3 cells (wild-type p53), P22077 10 μM
# Procedure: as §1
# We then investigated whether USP7 could regulate CHK1 levels in leukemic cells. […] . We then asked whether p53 status could affect this response and reproduced these experiments on two AML cell lines, OCI-AML3 and HEL, which express wild-type p53 and high CHK1 protein levels (FIG. 1A and data not shown). […] . Using an immunofluorescence approach, we also validated that approximately 50% of CHK1 protein signal disappears after 24 hours of USP7 inhibition (data not shown).
# [3] = test system: CHK1 protein levels in HEL cells; assay: CHK1 and p53 protein levels in HEL cells; type: cell-based, Human; settings: data not shown
# Source text: as §2
# [4] = test system: CHK1 protein signal; assay: Immunofluorescence of CHK1 protein signal; type: cell-based; settings: after 24 hours of USP7 inhibition, data not shown
# Source text: as §2
# We then investigated whether USP7 can regulate CHK1 protein level or its subcellular localization in leukemic cells. […] Using immunofluorescence, we also validated that approximately 50% of the CHK1 protein signal disappears after 24 hours of USP7 inhibition, without any changes in CHK1 subcellular localization (data not shown).
# [5] = test system: CHK1 ubiquitination in HL60 cells; assay: CHK1 immunoprecipitation and ubiquitin immunoblot in HL60 cells with MG132; type: cell-based, Human; settings: in presence of proteasome inhibitor MG132, vs control condition
# Procedure: To confirm that USP7 can regulates CHK1 protein level, endogenous CHK1 was immunoprecipitated from HL60 cells treated or not with P22077, in presence of the proteasome inhibitor MG132 to stabilize ubiquitinated forms of the protein. Immunoblotting of these fractions was performed and probed with an antibody against ubiquitin.
# [6] = test system: CHK1 half-life in HL60 cells; assay: CHK1 half-life with cycloheximide in HL60 cells; type: cell-based, Human
# Procedure: To complete, experiments were performed to test whether the half-life of CHK1 is regulated by USP7 in leukemic cells. To this end, HL60 cells were treated with P22077 and the half-life of CHK1 was measured in the presence of 50 μg/mL cycloheximide (CHX) to inhibit protein biogenesis.
# [7] = test system: HL-60 cells; assay: Cell death of HL-60 cells, combination with cytarabine, annexinV flow cytometry; type: cell-based, Human; settings: HL60 cells, 24 h
# Procedure: (§3) B: HL-60 cells were treated as indicated for 24 h. […] Statistical analysis was performed by unpaired t-test (n=4). *P≤0.05 and **P≤0.01. […] Colony formation was assessed after 7 days and represented as the ratio of the number of clones between untreated and treated conditions. For statistical analyses, unpaired Wilcoxon test was used. *P≤0.05, and ns=not significant.
# (§4) To explore the possibility that USP7 by modulating CHK1 stability USP7 participates in the chemoresistance of leukemic cells, we examined the capacity of USP7 inhibition to sensitize HL60 and OCI-AML3 cells to cytarabine treatment. […] We then quantified the capacity of primary AML cells to form colonies in methylcellulose-based semi-solid medium, when exposed to clinical relevant concentrations (10 nM) of cytarabine combined with the P22077 inhibitor (FIG. 5D-5E).
# [8] = test system: OCI-AML3 cells; assay: Cell death of OCI-AML3 cells, combination with cytarabine, annexinV flow cytometry; type: cell-based, Human; settings: P22077 10 μM + AraC 1 μM, 24 h
# Procedure: as §3, §4
# [9] = test system: primary AML cells; assay: Colony formation of primary AML blast cells in methylcellulose-based semi-solid medium; type: cell-based, Human; settings: for colony formation, effect on cytarabine sensitivity: 10 nM cytarabine + 5 μM P22077, 7 days
# Procedure: as §3, §4
# [10] = test system: OCI-AML3 cells engrafted in NSG mice; assay: OCI-AML3 xenograft in NSG mice, overall survival; settings: NSG mice engrafted with OCI-AML3, 30 mg/kg/day IP for 5 days, vs vehicle, p=0.0001
# Procedure: For statistical analysis, Mantel-Cox test was used. ***P≤0.001.
# NOD/LtSz-SCID/IL-2Ry chain null (NSG) mice were bred at the UMS006 in Toulouse (France) using breeders obtained from Charles River. […] NSG mice were treated by i.p. injection of busulfan (20 mg/kg) on the day before the experiment. Mice were engrafted by injection of 2.10^6 OCI-AML3 cells into the tail vein. […] Mice were treated by daily intraperitoneal (IP) injection with AraC, P22077 or vehicle for 5 days. Overall mouse survival was established under these conditions.
# OCI-AML3 resistant cells were injected into the tail vein of immunodeficient NSG mice to establish AML disease.
# [11] = test system: Peripheral Blood Mononuclear Cells (PBMC); assay: Cell viability of PBMC, annexinV/cell viability staining by flow cytometry; settings: normal PBMC (n=3), 10 μM P22077 for 24 h
# [12] = test system: AML primary samples; assay: Cell viability of AML primary samples, annexinV/cell viability staining by flow cytometry; settings: three primary AML samples, 10 μM P22077 for 24 h
# [13] = target: T1, CHK1 and USP7 (Homo sapiens, UniProt Q93009); assay: Proximity Ligation Assay (PLA) of CHK1 and USP7 in HL-60 cells; type: cell-based; settings: HL60 cells, drug treatment, untreated (NT) 1.07+/−0.07
# T1 construct: endogenous in cells; host or cells: HL-60 cells
# Procedure: as §3
# T1 sequence (Q93009 whole entry): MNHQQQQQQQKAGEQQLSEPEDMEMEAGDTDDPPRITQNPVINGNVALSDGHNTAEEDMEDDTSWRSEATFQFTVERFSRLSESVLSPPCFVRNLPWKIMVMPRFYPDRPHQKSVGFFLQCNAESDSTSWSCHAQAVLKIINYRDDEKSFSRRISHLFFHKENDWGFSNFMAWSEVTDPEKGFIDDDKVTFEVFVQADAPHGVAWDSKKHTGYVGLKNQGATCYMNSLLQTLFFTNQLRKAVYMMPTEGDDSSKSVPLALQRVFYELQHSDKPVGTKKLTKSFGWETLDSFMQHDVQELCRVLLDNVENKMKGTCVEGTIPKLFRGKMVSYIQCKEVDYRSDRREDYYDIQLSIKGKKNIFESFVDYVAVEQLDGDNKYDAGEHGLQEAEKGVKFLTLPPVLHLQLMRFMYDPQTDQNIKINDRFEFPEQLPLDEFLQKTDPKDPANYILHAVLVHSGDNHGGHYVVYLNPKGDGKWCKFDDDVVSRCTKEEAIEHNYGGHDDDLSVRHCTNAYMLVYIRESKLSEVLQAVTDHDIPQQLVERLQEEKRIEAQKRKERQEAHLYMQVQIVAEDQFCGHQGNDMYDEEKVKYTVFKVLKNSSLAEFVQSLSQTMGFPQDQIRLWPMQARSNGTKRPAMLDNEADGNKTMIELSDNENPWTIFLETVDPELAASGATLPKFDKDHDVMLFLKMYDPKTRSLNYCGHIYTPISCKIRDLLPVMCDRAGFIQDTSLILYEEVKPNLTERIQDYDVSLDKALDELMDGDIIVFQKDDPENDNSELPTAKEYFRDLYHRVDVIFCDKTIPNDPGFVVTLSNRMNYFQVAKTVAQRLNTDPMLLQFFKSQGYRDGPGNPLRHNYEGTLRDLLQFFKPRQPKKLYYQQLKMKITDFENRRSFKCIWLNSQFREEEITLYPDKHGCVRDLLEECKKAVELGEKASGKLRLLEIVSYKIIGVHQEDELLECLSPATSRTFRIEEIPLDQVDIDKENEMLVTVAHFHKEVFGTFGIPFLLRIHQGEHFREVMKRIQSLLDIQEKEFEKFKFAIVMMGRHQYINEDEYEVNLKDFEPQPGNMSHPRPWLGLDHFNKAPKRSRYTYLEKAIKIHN
"PLA foci per cell, co-staining of CHK1 and USP7 (mean +/- s.e.m.) ([13]; listed as AraC)",SMILES,CHK1 protein levels [1],CHK1 protein level [2],CHK1 protein levels ([3]; HEL cells (wild-type p53)),p53 protein levels ([3]; HEL cells),CHK1 protein signal that disappears (immunofluorescence) [4],CHK1 ubiquitination [5],"half-life of CHK1 protein ([6]; 50 μg/mL cycloheximide, after 6 hours of P22077 treatment)","CHEK1 mRNA expression ([6]; P22077 treatment, data not shown)",cell death in combination with cytarabine [7],cell death in combination with cytarabine [8],"colony formation, effect on cytarabine sensitivity ([9]; high CHK1 primary AML cells (n=6))","colony formation, effect on cytarabine sensitivity ([9]; low CHK1 primary AML cells (n=3))",overall mouse survival [10],cell viability [11],cell viability [12],"PLA foci per cell, co-staining of CHK1 and USP7 (mean +/- s.e.m.) [13]","colony formation, resistance of high CHK1 cells compared to low CHK1 cells ([9]; 10 nM cytarabine alone, 7 days)"
,"CC(=O)c1cc([N+](=O)[O-])c(Sc2ccc(F)cc2F)s1 [P22077, 1-[5-[(2,4-Difluorophenyl)thio]-4-nitro-2-thienyl]-ethanone]",significant decrease of CHK1 protein levels,reduced CHK1 protein level,similarly decreased CHK1 protein levels,without significant impact on p53 protein levels,approximately 50%,more abundantly ubiquitinated,significantly shortened the half-life of CHK1 protein,without affecting CHEK1 mRNA expression,synergistically enhances cell death induced by cytarabine,synergistically enhances cell death induced by cytarabine,potentiated the effects of cytarabine,did not modify the sensitivity to cytarabine,significantly improved overall mouse survival,largely unaffected,significantly reduced cell viability,,
3.31+/−0.21 foci/cell,Nc1ccn([C@@H]2O[C@H](CO)[C@@H](O)[C@@H]2O)c(=O)n1 [cytarabine],,,,,,,,,,,,,,,,significant proximity between the two proteins,significantly more resistant to cytarabine
